{"source": "patent US20260248799A1", "about": "“COMBINATIONS OF RETINALDEHYDE DEHYDROGENASE 1 (RALDH1) INHIBITORS AND IMMUNOSTIMULATORS AND METHODS USING SAME” (The Trustees of the University of Pennsylvania, priority 2023, published 2026)", "key": {"[1]": {"biological_target": "T1, Tachykinin NK1 (Homo sapiens, UniProt P25103)", "T1 construct": "Eurofins Cereps Panlabs (contract panel)", "T1 sequence (P25103 whole entry)": "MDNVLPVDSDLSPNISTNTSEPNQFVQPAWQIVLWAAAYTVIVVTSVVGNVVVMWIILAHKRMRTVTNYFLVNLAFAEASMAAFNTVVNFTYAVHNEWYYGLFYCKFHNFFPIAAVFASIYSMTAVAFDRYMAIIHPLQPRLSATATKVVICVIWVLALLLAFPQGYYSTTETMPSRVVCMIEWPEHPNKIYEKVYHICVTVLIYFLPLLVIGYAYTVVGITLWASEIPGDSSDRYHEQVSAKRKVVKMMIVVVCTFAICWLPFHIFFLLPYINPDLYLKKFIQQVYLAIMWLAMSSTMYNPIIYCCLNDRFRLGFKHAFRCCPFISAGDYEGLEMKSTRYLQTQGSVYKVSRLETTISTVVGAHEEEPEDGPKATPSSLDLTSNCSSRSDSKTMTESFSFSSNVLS", "assay": "Safetyscreen: Tachykinin NK1", "type": "binding", "conditions": "read-out: % Inh. Tachykinin NK1"}, "[2]": {"biological_target": "T2, Muscarinic M2 (Homo sapiens, UniProt P08172)", "T2 construct": "Eurofins Cereps Panlabs (contract panel)", "T2 sequence (P08172 whole entry)": "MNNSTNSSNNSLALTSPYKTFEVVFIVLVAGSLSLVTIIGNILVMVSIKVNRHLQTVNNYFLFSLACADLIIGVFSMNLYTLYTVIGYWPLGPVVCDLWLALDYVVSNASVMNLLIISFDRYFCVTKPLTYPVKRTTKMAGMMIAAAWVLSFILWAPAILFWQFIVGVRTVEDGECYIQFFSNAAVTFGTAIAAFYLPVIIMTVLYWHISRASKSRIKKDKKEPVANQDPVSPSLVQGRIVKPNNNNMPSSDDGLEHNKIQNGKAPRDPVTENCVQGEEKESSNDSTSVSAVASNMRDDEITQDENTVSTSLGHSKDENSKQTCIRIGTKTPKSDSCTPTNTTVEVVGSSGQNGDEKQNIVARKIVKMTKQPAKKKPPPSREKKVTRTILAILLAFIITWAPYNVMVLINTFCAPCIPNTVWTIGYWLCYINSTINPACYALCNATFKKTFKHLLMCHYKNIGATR", "assay": "Safetyscreen: Muscarinic M2", "type": "binding", "conditions": "read-out: % Inh. Muscarinic M2"}, "[3]": {"biological_target": "T3, Transporter, Dopamine (DAT) (Homo sapiens, UniProt Q01959)", "T3 construct": "purchased Eurofins Cereps Panlabs", "T3 sequence (Q01959 whole entry)": "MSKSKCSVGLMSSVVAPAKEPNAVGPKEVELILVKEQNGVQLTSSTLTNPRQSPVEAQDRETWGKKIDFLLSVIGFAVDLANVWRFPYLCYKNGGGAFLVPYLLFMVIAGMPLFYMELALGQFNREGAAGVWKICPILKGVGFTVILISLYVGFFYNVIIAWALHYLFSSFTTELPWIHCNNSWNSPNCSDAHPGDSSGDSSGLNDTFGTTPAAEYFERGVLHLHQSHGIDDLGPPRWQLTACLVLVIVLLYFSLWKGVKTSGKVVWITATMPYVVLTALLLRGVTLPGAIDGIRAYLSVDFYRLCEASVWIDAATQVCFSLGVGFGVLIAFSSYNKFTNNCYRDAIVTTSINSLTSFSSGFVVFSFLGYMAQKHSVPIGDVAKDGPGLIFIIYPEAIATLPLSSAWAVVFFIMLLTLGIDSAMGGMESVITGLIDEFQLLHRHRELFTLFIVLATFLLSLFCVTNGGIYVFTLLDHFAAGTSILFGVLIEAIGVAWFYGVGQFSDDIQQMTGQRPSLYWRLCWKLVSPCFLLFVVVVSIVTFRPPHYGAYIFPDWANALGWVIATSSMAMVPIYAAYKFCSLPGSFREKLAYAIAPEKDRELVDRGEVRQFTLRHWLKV", "assay": "Safetyscreen: DAT", "type": "binding", "conditions": "read-out: % Inh. Transporter, Dopamine (DAT)"}, "[4]": {"test_system": "primary human monocytes", "assay": "Human monocyte DC differentiation with SNU398 cells or conditioned media", "type": "cell-based", "from_the_text": "(§1) FIGS. 22A-22E: RALDH1 inhibition blocks RA-mediated effects of HCC on monocyte differentiation. FIGS. 22A-22B: Circulating primary human monocytes from donors (FIG. 22A) or murine monocytes from bone marrow (FIG. 22B) were cocultured with SNU398 (Human HCC) cells or treated with SNU398-conditioned media (CM) in a DC differentiation system (GM-CSF and IL-4). Two-color histograms show the frequencies of DCs (CD11c^+CD1a^+ for human and CD11c^+MHCII^+ for mouse). The presence of SNU398 or its CM suppressed DC differentiation, which is reversed when SNU398 cells are treated with C86. Three or more independent experiments were performed with at least three replicates per experimental group. Unpaired t test, two-tailed. FIG. 22C: Huh7 (human HCC) cells were subcutaneously injected into flanks of NU/J mice. […] The frequencies of the host (murine) DCs (CD45^+F4/80^−CD11C^+MHCII-high) and macrophages (CD45^+F4/80^+) are quantified in a bar graph. […] Shown are the representative FCM plot (histogram) and DC quantification (bar graph). […]\nMouse monocytes were isolated from bone marrow as described herein and then cultured in RPMI 1640 (ThermoFisher Scientific, Cat #11875085) with 10% fetal bovine serum (GeminiBio, Cat #100-500). […] Cellular identity and function of differentiated monocytes was assessed by flow cytometry and quantitative PCR (qPCR)."}, "[5]": {"test_system": "monocytes in Huh7 tumors", "assay": "Differentiation of human monocytes injected into Huh7 tumors in NU/J mice", "type": "in vivo, mouse", "conditions": "10 mg/kg, i.p, daily", "from_the_text": "as §1, with “mice. 12 days later the tumor size was about 50 mm^3 and C86 or vehicle treatment (10 mg/kg, i.p, daily injection) was started.” for “mice.”\nMonocytes were isolated (as described above) from mouse bone marrow of C57BL/6 mice and counted. […] Tumors were harvested at specified time points and analyzed by flow cytometry. […]"}, "[6]": {"biological_target": "T4, Protein Tyrosine Kinase, Insulin Receptor (Homo sapiens, UniProt P06213)", "T4 construct": "Eurofins Cerep Panlabs (contract panel)", "T4 sequence (P06213 28-1382)": "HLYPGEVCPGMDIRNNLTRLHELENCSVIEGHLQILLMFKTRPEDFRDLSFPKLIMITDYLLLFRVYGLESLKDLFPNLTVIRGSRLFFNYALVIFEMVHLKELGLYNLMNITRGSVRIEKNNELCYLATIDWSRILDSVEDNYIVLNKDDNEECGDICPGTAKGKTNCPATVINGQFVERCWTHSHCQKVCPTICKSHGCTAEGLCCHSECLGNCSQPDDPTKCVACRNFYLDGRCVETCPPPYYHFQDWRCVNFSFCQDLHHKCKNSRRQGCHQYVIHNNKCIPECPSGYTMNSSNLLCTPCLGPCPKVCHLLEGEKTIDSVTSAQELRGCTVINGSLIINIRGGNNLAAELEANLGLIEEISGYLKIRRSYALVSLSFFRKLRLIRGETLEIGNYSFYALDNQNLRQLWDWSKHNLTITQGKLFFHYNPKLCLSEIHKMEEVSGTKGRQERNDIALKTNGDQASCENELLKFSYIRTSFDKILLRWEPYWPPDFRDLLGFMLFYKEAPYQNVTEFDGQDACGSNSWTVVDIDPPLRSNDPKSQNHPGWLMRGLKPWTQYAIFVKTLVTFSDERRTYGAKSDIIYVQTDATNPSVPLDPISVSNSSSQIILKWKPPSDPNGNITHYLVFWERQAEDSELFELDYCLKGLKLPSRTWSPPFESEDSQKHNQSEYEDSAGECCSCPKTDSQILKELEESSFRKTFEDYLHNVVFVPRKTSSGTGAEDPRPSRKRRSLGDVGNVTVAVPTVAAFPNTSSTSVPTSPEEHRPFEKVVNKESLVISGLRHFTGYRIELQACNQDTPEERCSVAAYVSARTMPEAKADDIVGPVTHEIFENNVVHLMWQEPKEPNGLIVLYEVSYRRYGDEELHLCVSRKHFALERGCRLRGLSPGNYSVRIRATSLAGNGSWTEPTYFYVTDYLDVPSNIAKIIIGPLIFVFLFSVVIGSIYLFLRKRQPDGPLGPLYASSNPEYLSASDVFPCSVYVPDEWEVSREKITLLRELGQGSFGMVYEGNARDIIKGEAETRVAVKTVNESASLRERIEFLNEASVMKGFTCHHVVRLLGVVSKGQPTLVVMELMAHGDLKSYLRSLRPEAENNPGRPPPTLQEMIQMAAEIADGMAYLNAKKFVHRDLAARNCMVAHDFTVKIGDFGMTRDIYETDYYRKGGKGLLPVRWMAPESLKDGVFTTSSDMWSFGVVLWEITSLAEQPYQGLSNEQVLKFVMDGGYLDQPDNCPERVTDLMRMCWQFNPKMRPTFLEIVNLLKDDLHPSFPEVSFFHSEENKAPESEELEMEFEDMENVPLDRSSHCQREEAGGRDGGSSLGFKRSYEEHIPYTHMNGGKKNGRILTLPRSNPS", "assay": "Safetyscreen: Insulin Receptor kinase", "type": "biochemical", "conditions": "read-out: % Inh. Protein Tyrosine Kinase, Insulin Receptor"}, "[7]": {"biological_target": "T5, Transporter, Norepinephrine (NET) (Homo sapiens, UniProt P23975)", "T5 construct": "purchased Eurofins Cereps Panlabs", "T5 sequence (P23975 whole entry)": "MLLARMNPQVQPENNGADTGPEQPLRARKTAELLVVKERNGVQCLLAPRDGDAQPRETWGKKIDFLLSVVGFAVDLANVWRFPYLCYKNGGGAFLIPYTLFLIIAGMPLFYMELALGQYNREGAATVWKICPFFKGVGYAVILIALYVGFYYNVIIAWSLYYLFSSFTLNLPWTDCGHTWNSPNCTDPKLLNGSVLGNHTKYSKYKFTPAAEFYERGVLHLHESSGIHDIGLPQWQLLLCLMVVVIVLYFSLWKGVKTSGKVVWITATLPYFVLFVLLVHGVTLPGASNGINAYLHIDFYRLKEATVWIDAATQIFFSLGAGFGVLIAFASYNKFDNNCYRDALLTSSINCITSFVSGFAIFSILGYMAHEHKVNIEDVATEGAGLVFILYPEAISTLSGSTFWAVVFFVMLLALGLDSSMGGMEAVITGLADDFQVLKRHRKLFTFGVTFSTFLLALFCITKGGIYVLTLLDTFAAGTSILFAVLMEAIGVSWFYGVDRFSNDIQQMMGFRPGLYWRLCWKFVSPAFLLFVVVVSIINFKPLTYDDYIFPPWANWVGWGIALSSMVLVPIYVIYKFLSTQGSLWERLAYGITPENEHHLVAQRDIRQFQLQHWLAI", "assay": "Safetyscreen: NET", "type": "binding", "conditions": "read-out: % Inh. Transporter, Norepinephrine (NET)"}, "[8]": {"biological_target": "T6, Chemokine CXCR2 (IL-8RB) (Homo sapiens, UniProt P25025)", "T6 construct": "purchased Eurofins Cereps Panlabs", "T6 sequence (P25025 whole entry)": "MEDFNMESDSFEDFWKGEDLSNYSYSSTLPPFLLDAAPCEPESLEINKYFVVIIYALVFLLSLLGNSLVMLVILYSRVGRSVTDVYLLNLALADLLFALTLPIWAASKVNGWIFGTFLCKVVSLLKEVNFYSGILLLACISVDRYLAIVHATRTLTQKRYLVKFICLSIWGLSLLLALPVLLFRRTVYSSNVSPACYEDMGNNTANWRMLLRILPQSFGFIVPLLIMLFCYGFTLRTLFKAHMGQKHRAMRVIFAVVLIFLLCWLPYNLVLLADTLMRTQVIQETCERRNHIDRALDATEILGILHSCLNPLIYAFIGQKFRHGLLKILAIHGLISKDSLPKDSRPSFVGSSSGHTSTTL", "assay": "Safetyscreen: CXCR2", "type": "binding", "conditions": "read-out: % Inh. Chemokine CXCR2 (IL-8RB)"}}}
{"molecule": "CS(=O)(=O)N1CCN(C(=O)c2cnc3ccc(F)cc3c2N2CCC(C#N)(c3ccccc3)CC2)CC1", "note": "[Compound C-86, 1-(6-fluoro-3-(4-(methylsulfonyl)piperazine-1-carbonyl)quinolin-4-yl)-4-phenylpiperidine-4-carbonitrile]", "values": [{"measurement": "inhibition at 10 µM", "setting": "[1]", "value": 37, "unit": "%"}, {"measurement": "inhibition at 10 µM", "setting": "[2]", "value": 4, "unit": "%"}, {"measurement": "inhibition at 10 µM", "setting": "[3]", "value": 8, "unit": "%"}, {"measurement": "potential of monocytes to differentiate into DCs", "setting": "[4]; direct treatment of monocytes in vitro", "value": "did not alter"}, {"measurement": "suppression of DC differentiation by HCC cells or CM", "setting": "[4]; human monocytes, HCC cells pre-treated", "value": "reversed"}, {"measurement": "frequency of host (murine) DCs and macrophages in the TME", "setting": "[5]", "value": "increased frequency of DCs and reduced frequency of macrophages"}, {"measurement": "DC differentiation from transplanted human monocytes", "setting": "[5]; five days after monocyte injection", "value": "increased DC differentiation"}, {"measurement": "inhibition at 10 µM", "setting": "[6]", "value": 0, "unit": "%"}, {"measurement": "inhibition at 10 µM", "setting": "[7]", "value": 35, "unit": "%"}, {"measurement": "inhibition at 10 µM", "setting": "[8]", "value": 8, "unit": "%"}]}
